In PubChem BioAssay AID330 (DTP/NCI, 2004):
Values joined by “and” are separate entries in the source; they are usually repeats but may differ in a detail not shown here. Equal entries are not always repeated. Inconclusive results and toxic doses are left out. Rule for the calls: active = survival T/C of 150% or more; inactive = T/C below 125% in these data.

Test system: P388 leukemia ip, CD2F1 mice, survival T/C
Assay: NCI In Vivo Anticancer Drug Screen. Data for tumor model P388 Leukemia (intraperitoneal) in CD2F1 (CDF1) mice
Details: endpoint: median survival time, higher = longer survival
Summary of the method: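 Mice carrying the transplanted tumor received test compound or vehicle. Survival was recorded in each group, and the value is the treated-group measurement divided by that of the vehicle-treated control group.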

[1] = dose: 50.0 mg/kg/injection, schedule: Q01DX005 (ip), vehicle: Klucel (hydroxypropylcellulose) (HPC)
[2] = dose: 100.0 mg/kg/injection, schedule: Q01DX005 (ip), vehicle: Klucel (hydroxypropylcellulose) (HPC)
[3] = dose: 50.0 mg/kg/injection, schedule: Q01DX005 (ip), vehicle: saline with Tween-80
[4] = dose: 100.0 mg/kg/injection, schedule: Q01DX005 (ip), vehicle: saline with Tween-80
[5] = dose: 200.0 mg/kg/injection, schedule: Q01DX005 (ip), vehicle: saline with Tween-80
[6] = dose: 60.0 mg/kg/injection, schedule: Q01DX005 (ip), vehicle: saline with Tween-80

Measured: T/C

CC1C(=O)CCC2C1(C)CCC1C2(C)CCC2(C)C3CC(C)(C(=O)O)CCC3(C)CCC12C (stereo not drawn)
inactive: dose: 12.5 mg/kg/injection, schedule: Q01DX005 (ip), vehicle: Klucel (hydroxypropylcellulose) (HPC) 94 % of control | dose: 25.0 mg/kg/injection, schedule: Q01DX005 (ip), vehicle: Klucel (hydroxypropylcellulose) (HPC) 100 % of control | [1] 88 % of control | [2] 87 % of control

Cc1cc(C)n2nc3c4ccsc4ncc3c2n1
inactive: dose: 25.0 mg/kg/injection, schedule: Q04DX002 (ip), vehicle: saline with Tween-80 105 % of control and 95 % of control | dose: 50.0 mg/kg/injection, schedule: Q04DX002 (ip), vehicle: saline with Tween-80 99 % of control and 105 % of control | dose: 100.0 mg/kg/injection, schedule: Q04DX002 (ip), vehicle: saline with Tween-80 116 % of control and 118 % of control and 119 % of control

NCCSCCN
inactive: dose: 50.0 mg/kg/injection, schedule: Q01DX009 (ip), vehicle: saline 100 % of control | dose: 100.0 mg/kg/injection, schedule: Q01DX009 (ip), vehicle: saline 99 % of control | dose: 100.0 mg/kg/injection, schedule: Q03DX003 (ip), vehicle: saline 102 % of control | dose: 200.0 mg/kg/injection, schedule: Q01DX009 (ip), vehicle: saline 105 % of control | dose: 200.0 mg/kg/injection, schedule: Q03DX003 (ip), vehicle: saline 105 % of control | dose: 400.0 mg/kg/injection, schedule: Q03DX003 (ip), vehicle: saline 92 % of control

Cc1ccc2c(c1)Nc1c(ccc3ccccc13)S2
inactive: [3] 105 % of control | [4] 105 % of control | [5] 103 % of control

CSC(C(=O)c1ccccc1)c1ccccc1 (stereo not drawn)
inactive: dose: 25.0 mg/kg/injection, schedule: Q01DX009 (ip), vehicle: saline + alcohol 87 % of control | dose: 50.0 mg/kg/injection, schedule: Q01DX009 (ip), vehicle: saline + alcohol 96 % of control | dose: 100.0 mg/kg/injection, schedule: Q01DX009 (ip), vehicle: saline + alcohol 112 % of control

NCCCCC(C(=O)NCC(=O)O)N(C(=O)OCc1ccccc1)C(=O)OCc1ccccc1 (stereo not drawn)
inactive: [3] 101 % of control | [4] 101 % of control | [5] 90 % of control

CN(C)CC#N
inactive: dose: 5.0 mg/kg/injection, schedule: Q01DX009 (ip), vehicle: saline 104 % of control | dose: 10.0 mg/kg/injection, schedule: Q01DX009 (ip), vehicle: saline 109 % of control | dose: 20.0 mg/kg/injection, schedule: Q01DX009 (ip), vehicle: saline 109 % of control

COc1ccc(C(O)C2CCCN(c3ccccc3)S2(=O)=O)cc1 (stereo not drawn)
inactive: dose: 100.0 mg/kg/injection, schedule: Q01DX001 (ip), vehicle: saline with Tween-80 101 % of control | dose: 200.0 mg/kg/injection, schedule: Q01DX001 (ip), vehicle: saline with Tween-80 94 % of control | dose: 400.0 mg/kg/injection, schedule: Q01DX001 (ip), vehicle: saline with Tween-80 98 % of control

CC(C)=CC(=O)C1=C(O)C(=O)OC1
inactive: dose: 50.0 mg/kg/injection, schedule: Q01DX009 (ip), vehicle: saline with Tween-80 109 % of control | dose: 100.0 mg/kg/injection, schedule: Q01DX009 (ip), vehicle: saline with Tween-80 108 % of control | dose: 200.0 mg/kg/injection, schedule: Q01DX009 (ip), vehicle: saline with Tween-80 107 % of control

COc1cc(C)c(/C(=N/O)n2nnc(-c3ccccc3)n2)c(C)c1
inactive: dose: 15.0 mg/kg/injection, schedule: Q01DX005 (ip), vehicle: saline with Tween-80 98 % of control | dose: 30.0 mg/kg/injection, schedule: Q01DX005 (ip), vehicle: saline with Tween-80 100 % of control | [6] 100 % of control and 91 % of control

N#CC1C(=O)NC(=S)NC1c1ccc(Cl)c(Cl)c1 (stereo not drawn)
inactive: dose: 50.0 mg/kg/injection, schedule: Q01DX009 (ip), vehicle: Klucel (hydroxypropylcellulose) (HPC) 100 % of control | dose: 100.0 mg/kg/injection, schedule: Q01DX009 (ip), vehicle: Klucel (hydroxypropylcellulose) (HPC) 95 % of control | dose: 200.0 mg/kg/injection, schedule: Q01DX009 (ip), vehicle: Klucel (hydroxypropylcellulose) (HPC) 95 % of control

Cc1cc(N=Cc2c(CO)cnc(C)c2O)c(N=Cc2c(CO)cnc(C)c2O)cc1C
inactive: [1] 98 % of control | [6] 93 % of control | [2] 96 % of control | dose: 120.0 mg/kg/injection, schedule: Q01DX005 (ip), vehicle: saline with Tween-80 104 % of control | dose: 200.0 mg/kg/injection, schedule: Q01DX005 (ip), vehicle: Klucel (hydroxypropylcellulose) (HPC) 91 % of control | dose: 240.0 mg/kg/injection, schedule: Q01DX005 (ip), vehicle: saline with Tween-80 94 % of control
